Earlier results in patent publication US5869086A, “Systems for the controlled release of pilocarpine” (LTS Lohmann Therapie-Systeme GmbH, priority 1993, dated 1999).

How the values were obtained:
[1] = tested on: adults; details: systemic, single maximum dose for adults; German Federal Board of Health
[2] = tested on: patients suffering from glaucoma (eye); details: applied to the eye
[3] = tested on: postganglionic, parasympathetic acetylcholine receptors; details: textbook
[4] = tested on: heart

- dosage at which risks are likely to arise [1]: below 20 mg
- hazard of high systemic doses ([4]; high doses, effect on the heart): hazardous to patients' life and health
Compound: CC[C@@H]1C(=O)OC[C@@H]1Cc1cncn1C [pilocarpine, (3S, 4R)-3-ethyl-4,5-dihydro-4-(1-methyl-1H-imidazole-5-ylmethyl)-2(3H)-furanone]
- duration of one application [2]: 4 to 6 h
- action on acetylcholine receptors [3]: specifically stimulates the postganglionic, parasympathetic acetylcholine receptors
- impairment of the heart function compared with carbachol ([4]; textbook, general application): impairment of the heart function is more distinct
